From PMC7185411 (Biochimica et Biophysica Acta. Proteins and Proteomics, 2015)
Read-outs that look alike come from different tables or passages of the source. Marks after values point to notes of the source that are not given here. Residues, ends and D or L forms follow the SMILES beside them. *: point of attachment. Cbz = O=C(OCc1ccccc1)*

What was measured:
Chymotrypsin [1] = test: Binding of inhibitors to chymotrypsin; assay type: biochemical; details: for KiIH/KiICHO or KiIH/KiICOCHO: fold increase in binding due to aldehyde or glyoxal group; for KiIH/KiICOOH: pH 7.2, ratio of Ki(obs) of peptide-H to peptide-COOH
[2] = cited from earlier work; for KH1: KH1 = KH1obs/[H2O], 25 °C
Chymotrypsin [3] = details: read-out: Ki(obs), cited from earlier work
α-Chymotrypsin = details: equilibrium constant for hemiketal formation; cited from earlier work
[4] = hydration of glyoxal keto group

Compound | KiIH/KiICHO or KiIH/KiICOCHO (Chymotrypsin [1]) | KH1 [2] | KH1(obs) ([2]; hydration of aldehyde group) | Ki (Chymotrypsin [3]; 25 °C) [µM] | KHK (α-Chymotrypsin) | KH1(obs) [2, 4] | Ki (Chymotrypsin [3]; pH 7.2, 25 °C) [µM] | KiIH/KiICHO or KiIH/KiICOCHO (Chymotrypsin [1]; listed as Z-APF-COCHO) | fold tighter binding on replacing the α-carboxylate group with a hydrogen atom (Chymotrypsin [1]) | KiIH/KiICOOH (Chymotrypsin [1])
C[C@H](NC(=O)OCc1ccccc1)C(=O)N[C@@H](C)C(=O)N[C@@H](Cc1ccccc1)C(=O)C=O [ZAAF-CHO, Z-Ala-Ala-Phe-CHO] | 100 | 0.25 | 13.9 ^e | 1.7 ± 0.4 | – | – | – | – | – | –
CC(NC(=O)OCc1ccccc1)C(=O)NC(C)C(=O)NC(Cc1ccccc1)C(=O)C=O (stereo not shown) [ZAAF-COCHO] | 455 | 0.0284 | – | – | 1170 | 1.58 ^d | 0.365 | – | – | –
C[C@H](NC(=O)OCc1ccccc1)C(=O)N1CCC[C@H]1C(=O)N[C@@H](Cc1ccccc1)C(=O)C=O [ZAPF-COCHO] | 2310 | 0.023 | – | – | 5270 | 1.28 ^c | 0.0335 | 460–2300 | – | –
CC(NC(=O)OCc1ccccc1)C(=O)N1CCCC1C(=O)NC(C=O)Cc1ccccc1 (stereo not drawn) [ZAPF-H, Z-Ala-Pro-Phe-H] (Cbz-Ala-Pro-Phe-aldehyde; configuration not given here) | – | – | – | – | – | – | 77.4 ± 6.4 | – | – | –
Cbz-Ala-Ala-Phe-OH [ZAAF-COOH] | – | – | – | – | – | – | 532 ± 50 | – | 3–4 fold | 0.31
Cbz-Ala-Pro-Phe-OH [ZAPF-COOH] | – | – | – | – | – | – | 241 ± 7 | – | 3–4 fold | 0.32
